Experimental data taken from paper PMC4818757, “Small molecule inhibitors of the Dishevelled‐CXXC5 interaction are new drug candidates for bone anabolic osteoporosis therapy” (EMBO Molecular Medicine, 2016).

Tests used:
[1] = test system: Wnt/β‐catenin pathway; test: TOPflash reporter assay; format: cell-based, murine; settings: MC3T3E1 cells, 2 days
Protocol: Figure 3 Effect of KY‐02061 on Wnt/β‐catenin pathway, osteoblast differentiation, and ex vivo‐cultured calvaria growth • A MC3T3E1 cells were transfected with pTOPFLASH together with pCMV‐β‐gal. After 24 h, the cells were treated with DMSO, KY‐02061 in DMSO, or 5 μM PolyR‐DBM for 2 days. The luciferase activities of whole‐cell lysates were measured and normalized with β‐galactosidase activities. (n = 3) • B Primary calvaria cells were isolated from the calvariae of 4‐day‐old mice (Manton et al, 2007) and treated with DMSO or KY‐02061 in DMSO for 4 days. ALP activity levels were visualized by ALP staining. • C Primary calvaria cells were treated with DMSO or 5 μM KY‐02061 in DMSO for 14 days. […] The calvaria thicknesses were measured from the stained sections using Image Pro software (E). […] (error bars), and significance was assessed using unpaired Student's t‐test.
Figure 5 Effects of KY‐02327 on Wnt/β‐catenin pathway and osteoblast differentiation in osteoblasts • A MC3T3E1 cells were transfected with pTOPFLASH together with pCMV‐β‐gal. […] The luciferase activities of whole‐cell lysates were measured and normalized with β‐galactosidase activities. (n = 3) • B, C MC3T3E1 cells were treated with indicated concentrations of KY‐02327 for 2 days. β‐Catenin and α‐tubulin were detected by immunoblot (B) or immunofluorescence (C) analyses. […] The mRNA level of osteocalcin (OCN) was measured by qRT–PCR. […]

[2] = Metabolic stability, human hepatocytes; format: in vitro ADME
[3] = target: T1, Dvl PDZ domain (Homo sapiens, UniProt O14640); test: NMR titration (1H-15N-HSQC); format: binding
T1 construct: plasmid DNA encoding Dvl-1247- 341 (the Dvl PDZ domain); His-tag (TEV-cleavable) (cleaved yes); made in house; host or cells: E. coli BL21 (DE3)
T1 sequence (O14640 247-341 limits assumed): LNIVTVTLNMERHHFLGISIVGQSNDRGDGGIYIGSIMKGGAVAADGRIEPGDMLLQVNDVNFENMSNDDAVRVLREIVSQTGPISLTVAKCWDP
Protocol: For NMR titration, ^1H‐^15N‐heteronuclear single‐quantum coherence spectroscopy (HSQC) was performed using various molar ratios of ^15N‐labeled Dvl PDZ domain relative to the DBM peptide, KY‐02061, or KY‐02327. For the Dvl PDZ domain and DBM titration, the molar ratios of ^15N‐labeled Dvl PDZ domain to peptide ligand were 1:5, 1:10, 1:15, 1:20, and 1:25. For the Dvl PDZ domain and KY‐02061 titration, the molar ratios were 1:10, 1:20, 1:40, 1:60, and 1:80. For the Dvl PDZ domain and KY‐02327 titration, the molar ratios were 1:0, 1:5, 1:10, and 1:20. All spectra were processed using XWINNMR (Bruker Biospin Corp., Billerica, MA) and NMRpipe/NMRDraw software (Delaglio et al, 1995). Using the Sparky program, all residues in each spectrum were completely assigned, and the chemical shift perturbations were calculated using the equation ΔδAV = ((Δδ1H)^2 + (Δδ15N/5)^2)^1/2, where ΔδAV, Δδ1H, and Δδ15N are the average, proton, and ^15N chemical shift changes, respectively. The residues showing ΔδAV > 0.05 were selected as residues participating in the interaction.
Dvl PDZ domain purification
E. coli strain BL21 (DE3) was transformed with plasmid DNA encoding Dvl-1247-341 (the Dvl PDZ domain), and the cells were grown in M9 minimal medium containing 15N isotope for 17 hours at 21°C and after then 1 mM isopropyl-1-thio-β -D-thiogalactopyranoside was treated. […]

[4] = Metabolic stability, rat liver microsomes; format: in vitro ADME

Metabolic Stability (%) Human [2] [%]	metabolic stability (in words) [2]	metabolic stability (in words) [4]	Structure (SMILES)	activation of the Wnt/β‐catenin pathway (TOPflash luciferase) [1]	stability, fold more stable than KY‐02061 [2] [fold]	residues of Dvl PDZ domain perturbed (chemical shift change > 0.05) [3]	Metabolic Stability (%) Rat [4] [%]	stability, fold more stable than KY‐02061 [4] [fold]
–	–	–	CCOC(=O)c1cc2cc(O)ccc2n1CC(=O)NCCN1CCCCC1 [KY‐02327]	dose‐dependent effect	1.3	one residue in βA (I250) and three residues in αB (V318, R322, and V325) of Dvl PDZ were perturbed	11.9	2.3
25.2 ± 3	poor metabolic stability	poor metabolic stability	CCOC(=O)Cn1c(C(=O)OCC)cc2cc(OS(=O)(=O)c3ccc(C)cc3)ccc21 [KY‐02061]	increased	–	one residue in βB (S265) and three residues in αB (L321, R322, and V325) were perturbed	5.1 ± 2.4	–
